Assay results published in patent US12391686B2, “Compounds and uses thereof” (Foghorn Therapeutics Inc., priority 2019, dated 2025).

Each compound was assayed against T1, Nanoluciferase-BRD9 fusion protein (3×FLAG-NLuc-BRD9) in SYO-1 cells (Homo sapiens, UniProt Q9H8M2) (assay: SYO1 BRD9 NanoLuc Degradation Assay). Settings: Table 6B; SYO-1 cells expressing 3×FLAG-NLuc-BRD9, 6 hours incubation, 1 μM top dose; read-out: SYO1 BRD9-NanoLuc degradation IC50.
T1 construct: expressed in transfected cells; host or cells: SYO-1
T1 sequence (Q9H8M2 1-597): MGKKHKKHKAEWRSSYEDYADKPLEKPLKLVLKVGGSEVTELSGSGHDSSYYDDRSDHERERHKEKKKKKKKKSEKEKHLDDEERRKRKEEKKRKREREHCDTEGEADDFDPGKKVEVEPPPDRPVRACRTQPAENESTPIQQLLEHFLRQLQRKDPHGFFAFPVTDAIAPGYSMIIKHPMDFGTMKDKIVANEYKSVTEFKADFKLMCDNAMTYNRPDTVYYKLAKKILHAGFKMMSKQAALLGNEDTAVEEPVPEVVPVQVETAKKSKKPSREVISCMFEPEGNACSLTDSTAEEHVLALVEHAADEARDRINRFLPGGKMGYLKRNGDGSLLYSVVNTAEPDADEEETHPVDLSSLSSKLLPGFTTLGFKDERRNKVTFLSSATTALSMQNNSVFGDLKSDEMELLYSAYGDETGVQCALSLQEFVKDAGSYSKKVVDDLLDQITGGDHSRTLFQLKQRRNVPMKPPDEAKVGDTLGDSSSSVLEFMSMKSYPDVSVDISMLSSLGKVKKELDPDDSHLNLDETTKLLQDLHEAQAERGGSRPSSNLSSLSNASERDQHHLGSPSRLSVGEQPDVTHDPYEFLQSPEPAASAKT
Assay type: cell-based
Protocol: Procedure: A stable SYO-1 cell line expressing 3×FLAG-NLuc-BRD9 was generated. On day 0 cells were seeded in 30 μL media into each well of 384-well cell culture plates. The seeding density was 8000 cells/well. On day 1, cells were treated with 30 nL DMSO or 30 nL of 3-fold serially DMSO-diluted compounds (10 points in duplicates with 1 μM as final top dose). Subsequently plates were incubated for 6 hours in a standard tissue culture incubator and equilibrated at room temperature for 15 minutes. Nanoluciferase activity was measured by adding 15 μL of freshly prepared Nano-Glo Luciferase Assay Reagent (Promega N1130), shaking the plates for 10 minutes and reading the bioluminescence using an EnVision reader.
Results: The Inhibition % was calculated using the following formula: % Inhibition=100×(LumHC−Lumsample)/(LumHC−LumLC). DMSO treated cells are employed as High Control (HC) and 1 μM of a known BRD9 degrader standard treated cells are employed as Low Control (LC).

Row | DC50 [µM] | Compound
1 | < 0.01 | COc1cc(-c2cn(C)c(=O)c3cnc(N(C)C)cc23)cc(OC)c1CN1CCC2(CC1)CC(Oc1ccc3c(c1)C(=O)N(C1CCC(=O)NC1=O)C3=O)C2 (stereo not drawn) [Compound D58]
2 | 0.01 to 0.1 | COc1cc(-c2cn(C)c(=O)c3cnc(N(C)C)cc23)cc(OC)c1CN1CCC(C[N+]2(C)CCC3(CC2)CC(Oc2ccc4c(c2)C(=O)N(C2CCC(=O)NC2=O)C4=O)C3)CC1 (stereo not drawn) [Compound D84]
3 | < 0.01 | COc1cc(-c2cn(C)c(=O)c3cnc(N(C)C)cc23)cc(OC)c1CN1CCC(C(C)(C)N2CCC3(CC2)CC(Oc2ccc4c(c2)C(=O)N(C2CCC(=O)NC2=O)C4=O)C3)CC1 (stereo not drawn) [Compound D108]
4 | 0.01 to 0.1 | COc1cc(-c2cn(C)c(=O)c3cnc(N(C)C)cc23)cc(OC)c1CN1CC(N2CCN(C3CCC(=O)NC3=O)C(=O)C2)C1 (stereo not drawn) [Compound D94]
5 | < 0.01 | COc1cc(-c2cn(C)c(=O)c3cnc(N(C)C)cc23)cc(OC)c1CN1CCN(C(C)COc2cccc3c2C(=O)N(C2CCC(=O)NC2=O)C3=O)CC1 (stereo not drawn) [Compound D71]
6 | 0.01 to 0.1 | COc1cc(-c2cn(C)c(=O)c3cnc(N(C)C)cc23)c2c(c1)N(CCCCCCCCOc1cccc3c1C(=O)N(C1CCC(=O)NC1=O)C3=O)CC2 (stereo not drawn) [Compound D47]
7 | < 0.01 | COc1cc(-c2cn(C)c(=O)c3cnc(N(C)C)cc23)cc(OC)c1CN1CCC(CN2CCN(c3ccc4c(c3)C(=O)N(C3CCC(=O)NC3=O)C4=O)CC2)CC1 (stereo not drawn) [Compound D57]
8 | < 0.01 | COc1cc(-c2cn(C)c(=O)c3cnc(N(C)C)cc23)cc(OC)c1CN1CC(CN2CCC3(CC2)CN(c2ccc4c(c2)C(=O)N(C2CCC(=O)NC2=O)C4=O)C3)C1 (stereo not drawn) [Compound D50]
9 | < 0.01 | COc1cc(-c2cn(C)c(=O)c3cnc(N(C)C)cc23)cc(OC)c1CC1CCN(c2ccc3c(c2)C(=O)N(C2CCC(=O)NC2=O)C3=O)CC1 (stereo not drawn) [Compound D133]
10 | < 0.01 | COc1cc(-c2cn(C)c(=O)c3cnc(N(C)C)cc23)cc(OC)c1CN1CC(CN2CCC3(CC2)CN(c2ccc4c(c2)CN(C2CCC(=O)NC2=O)C4=O)C3)C1 (stereo not drawn) [Compound D143]
11 | < 0.01 | COc1cc(-c2cn(C)c(=O)c3cnc(N(C)C)cc23)cc(OC)c1CN(C)CC12CC(C(=O)NCCCCCNc3cccc4c3C(=O)N(C3CCC(=O)NC3=O)C4=O)(C1)C2 (stereo not drawn) [Compound D35]
12 | < 0.01 | COc1cc(-c2cn(C)c(=O)c3cnc(N(C)C)cc23)cc(OC)c1CN(C)CC12CC(C(=O)NCCCCCOc3ccc4c(c3)C(=O)N(C3CCC(=O)NC3=O)C4=O)(C1)C2 (stereo not drawn) [Compound D38]
13 | < 0.01 | COc1cc(-c2cn(C)c(=O)c3cnc(N(C)C)cc23)cc(OC)c1CN1CCC(CN2Cc3cc4c(cc3C2)C(=O)N(C2CCC(=O)NC2=O)C4=O)CC1 (stereo not drawn) [Compound D61]
14 | < 0.01 | COc1cc(-c2cn(C)c(=O)c3cnc(N(C)C)cc23)cc(OC)c1CN(C)CC12CC(C(=O)NCCCCCOc3cccc4c3C(=O)N(C3CCC(=O)NC3=O)C4=O)(C1)C2 (stereo not drawn) [Compound D36]
15 | < 0.01 | COc1cc(-c2cn(C)c(=O)c3cnc(N(C)C)cc23)cc(OC)c1CN1CCC(CN2CCC3(CC2)CC(Oc2ccc4c(c2)C(=O)N(C2CCC(=O)NC2=O)C4=O)C3)CC1 (stereo not drawn) [Compound D54]
16 | < 0.01 | COc1cc(-c2cn(C)c(=O)c3cnc(N(C)C)cc23)cc(OC)c1CN1CCC(CCN2CCN(c3ccc4c(c3)C(=O)N(C3CCC(=O)N(COC(=O)OC(C)C)C3=O)C4=O)CC2)CC1 (stereo not drawn) [Compound D85]
17 | < 0.01 | COc1cc(-c2cn(C)c(=O)c3cnc(N4CCC4)cc23)cc(OC)c1CN1CC(N2CCC(c3ccc4c(c3)CN(C3CCC(=O)NC3=O)C4=O)CC2)C1 (stereo not drawn) [Compound D177]
18 | < 0.01 | COc1cc(-c2cn(C)c(=O)c3cnc(N(C)C)cc23)cc(OC)c1CN1CCC(CN2CCC3(CC2)CC(Oc2cc4c(cc2F)C(=O)N(C2CCC(=O)NC2=O)C4=O)C3)CC1 (stereo not drawn) [Compound D129]
19 | < 0.01 | COc1cc(-c2cn(C)c(=O)c3cnc(N4CCC4)cc23)cc(OC)c1CN1CCC(C(=O)N2CCC3(CC2)CC(Oc2ccc4c(c2)C(=O)N(C2CCC(=O)NC2=O)C4=O)C3)CC1 (stereo not drawn) [Compound D79]
20 | < 0.01 | COc1cc(-c2cn(C)c(=O)c3cnc(N4CCC4)cc23)cc(OC)c1CN1CCC2(CC1)CN(c1ccc3c(c1)C(=O)N(C1CCC(=O)NC1=O)C3)C2 (stereo not drawn) [Compound D142]
21 | < 0.01 | COc1cc(-c2cn(C)c(=O)c3cnc(N4CCC4)cc23)cc(OC)c1CN1CCC(c2ccc3c(c2)C(=O)N(C2CCC(=O)NC2=O)C3=O)CC1C(F)(F)F (stereo not drawn) [Compound D150]
22 | < 0.01 | COc1cc(-c2cn(C)c(=O)c3cnc(N(C)C)cc23)cc(OC)c1CN1CCC2(CC1)CCN(CC#Cc1ccc3c(c1)C(=O)N(C1CCC(=O)NC1=O)C3=O)C2 (stereo not drawn) [Compound D65]

Same assay, conditions: Table 6C; SYO-1 cells expressing 3×FLAG-NLuc-BRD9, 6 hours incubation, 1 μM top dose; read-out: SYO1 BRD9-NanoLuc degradation IC50

Row | DC50 [µM] | Compound
23 | < 0.01 | COc1cc(-c2cn(C)c(=O)c3cnc(N(C)C)cc23)cc(OC)c1CN(C)c1ccc2c(c1)CN(C1CCC(=O)NC1=O)C2=O (stereo not drawn) [Compound D277]
24 | < 0.01 | [2H]C1CC(N2Cc3cc(N4CCC(CCN5CCN(Cc6c(OC)cc(-c7cn(C)c(=O)c8cnc(N9CCC9)cc78)cc6OC)CC5)CC4)ccc3C2=O)C(=O)NC1=O (stereo not drawn) [Compound D245]
25 | < 0.01 | COc1cc(-c2cn(C)c(=O)c3cnc(C(C)(C)CO)cc23)cc(OC)c1CN1CCC(CN2CCC3(CC2)CC(Oc2ccc4c(c2)CN(C2CCC(=O)NC2=O)C4=O)C3)CC1 (stereo not drawn) [Compound D315]
26 | < 0.01 | COc1cc(-c2cn(C)c(=O)c3cnc(C4CC4)cc23)cc(OC)c1CN1CCN(CCC2CCN(c3ccc4c(c3)C(=O)N(C3CCC(=O)NC3=O)C4=O)CC2)CC1 (stereo not drawn) [Compound D299]
27 | < 0.01 | COc1cc(-c2cn(C)c(=O)c3cnc(C4CC4)cc23)cc(OC)c1CN1CCC2(CC1)CN(c1ccc3c(c1)C(=O)N(C1CCC(=O)NC1=O)C3)C2 (stereo not drawn) [Compound D226]
28 | < 0.01 | [2H]C([2H])([2H])n1cc(-c2cc(OC)c(CN3CCN(CCC4CCN(c5ccc6c(c5)C(=O)N(C5CCC(=O)NC5=O)C6)CC4)CC3)c(OC)c2)c2cc(N(C)C)ncc2c1=O (stereo not drawn) [Compound D240]
29 | < 0.01 | COc1cc(-c2cn(C)c(=O)c3cnc(C4CC4)cc23)cc(OC)c1CN1CCC(C#Cc2ccc3c(c2)C(=O)N(C2CCC(=O)NC2=O)C3)CC1 (stereo not drawn) [Compound D269]
30 | < 0.01 | COc1cc(-c2cn(C)c(=O)c3cnc(C(F)(F)F)cc23)cc(OC)c1CN1CC(CN2CCC3(CC2)CN(c2ccc4c(c2)C(=O)N(C2CCC(=O)NC2=O)C4)C3)C1 (stereo not drawn) [Compound D186]
31 | < 0.01 | COc1cc(-c2cn(C)c(=O)c3cnc(N4CC[C@@H]4C)cc23)cc(OC)c1CN1CC(CN2CCC3(CC2)CN(c2ccc4c(c2)C(=O)N(C2CCC(=O)NC2=O)C4)C3)C1 (stereo partly drawn) [Compound D213]
32 | < 0.01 | COc1cc(-c2cn(C)c(=O)c3cnc(N4CC(F)(F)C4)cc23)cc(OC)c1CN1CCC(CCN2CCC3(CC2)CN(c2ccc4c(c2)C(=O)N(C2CCC(=O)NC2=O)C4)C3)CC1 (stereo not drawn) [Compound D241]
33 | < 0.01 | COc1cc(-c2cn(C)c(=O)c3cnc(C4CC4)cc23)cc(OC)c1CN1CC(C#Cc2ccc3c(c2)C(=O)N(C2CCC(=O)NC2=O)C3=O)C1 (stereo not drawn) [Compound D275]
34 | < 0.01 | COc1cc(-c2cn(C)c(=O)c3cnc(N(C)C)cc23)cc(OC)c1CN1CCN(c2ccc3c(c2)C(=O)N(C2CCC(=O)NC2=O)C3)CC1(C)C (stereo not drawn) [Compound D255]
35 | 0.1 to 1 | COc1cc(-c2nn(C)c(=O)c3cnc(N4CCC4)cc23)cc(OC)c1CN1CCC(CN2CCC3(CC2)CC(Oc2ccc4c(c2)C(=O)N(C2CCC(=O)NC2=O)C4)C3)CC1 (stereo not drawn) [Compound D283]
36 | < 0.01 | COc1cc(-c2cn(C)c(=O)c3cnc(N(C)C)cc23)cc(Cl)c1C(=O)N1CCN(CCC2CCN(c3ccc4c(c3)CN(C3CCC(=O)NC3=O)C4=O)CC2)CC1 (stereo not drawn) [Compound D189]
